Usually melting point stands for the temperature, or range, at which the solid turns liquid. As for `CN(C)CCN(C(=O)c1ccc([N+](=O)[O-])cc1Br)c1ccnc2cc3c(cc12)OCO3`, the melting point lay in the range of 111 to 112 °C.

For the compound `CC(C)c1sc(-c2nccs2)c2c1C(=O)CC(C)(C)C2`, the melting point was 106 to 108 °C.

As to `C[C@@H](c1ccc(-c2ncc(C(=O)N(C)C)s2)cc1)N1CC[C@](CC(C)(C)O)(c2ccccc2)OC1=O`, the melting point lay within 110 to 112 °C.

On to `CCN(C(=O)OC)c1cn2cc(Sc3ccccc3)ccc2n1`, for which the melting point lay in the range of 130 to 131 °C.

In turn, `O=S1(=O)c2cccc3cccc(c23)N1CCCCN1CCN(c2noc3ccccc23)CC1` yielded a melting point of 138 °C.

Compound `COC(=O)c1ccc2oc(CCCCc3cc4cc(C(=O)OC)ccc4o3)cc2c1` displayed a melting point of 130 to 131 °C.

In the case of `CCSc1ccc2c(c1)NC(=O)C2`, the melting point lay in the range of 125 to 126 °C.

Take `CN(C)C(=O)N1Cc2c(-c3noc(C4CC4)n3)ncn2-c2cccc(F)c21`: the melting point was in the range of 194 to 195 °C.

For `CCCCCS(=O)(=O)NC(=O)/C=C/c1cc(OC(C)C)nn1Cc1ccc(Cl)cc1Cl`, the melting point lay within 109 to 112 °C.

As for `COC(=O)/C=C/C=C(\c1ccc(OC)cc1)c1ccccc1OC`, the melting point was 99.5 to 102 °C.

In turn, `CC(C)(C(=O)O)c1cccc(O[Si](C)(C)C(C)(C)C)c1` yielded a melting point of 72 to 74 °C.

In turn, `COc1cccc(C=CCC(=O)O)c1OC` gave a melting point of 84 to 86 °C.

`CC(=O)SC(C)C(Cc1ccccc1)C(=O)Nc1cccc(C(=O)O)c1` (stereo not given) returned a melting point of 180 to 182 °C.

`COC(=O)c1cc2cnc(SC)nc2n(Cc2ccc(OC)c(Cl)c2)c1=O` returned a melting point of 191 to 193 °C.

As to `Cc1cc(Oc2c(F)cc(C(F)(F)F)cc2Cl)nn1C(=O)NCCBr`, the melting point lay within 85 to 86 °C.

Consider `Nc1cnn2cnc3ccccc3c12`, for which the melting point was in the range of 168 to 170 °C.

For `CN1CCC(O)(c2cccc3ccc(N(Cc4ccccc4)Cc4ccccc4)cc23)CC1`, the melting point lay within 173 to 174 °C.

Turning to `Nc1ccc(C2CCC(=O)CC2)cc1`, the melting point lay in the range of 127 to 128 °C.

`NC(=O)Cc1cc(Oc2ccc3c(ccn3C(=O)Nc3ccc(CN4CCN(C5CC5)CC4)c(C(F)(F)F)c3)c2)ncn1` showed a melting point of 122 to 126 °C.

With `Nc1cc(Cl)nc(C(=O)O)c1C=O`, the melting point is 146 to 148 °C.

`O=C(Cn1c(-c2ccc(Br)cc2)nc2cccnc21)N1CCCCC1` yielded a melting point of 175 to 176 °C.

`O=C1c2ccccc2C(=O)N1OC1CCCCCC1`: the melting point was 110 to 112 °C.

In the case of `O=C(O)c1cccnc1Oc1cccc(Cl)c1`, the melting point lay in the range of 161 to 164 °C.

`CC1CCCN(C(=O)COc2cc(-c3ccccc3)nc3ccccc23)C1` (stereo not given) showed a melting point of 96 °C.

Consider `CCS(=O)c1nsc(NC(=O)NC)c1C(N)=O` (stereo not given), for which the melting point is 245 °C.

The compound `COc1ccc([C@H](Sc2ccccc2N)[C@@H](O)C(=O)Nc2ccccc2)cc1` yielded a melting point of 215 to 217 °C.

`FC(F)(F)COC(c1ccc(Cl)c2nc3n(c12)CCCN3c1ccc(Cl)cc1Cl)C1CC1` (stereo not given) showed a melting point of 143 to 145 °C.

For `O=[N+]([O-])c1nccnc1NCC(O)CO` (stereo not given), the melting point fell in the range of 100 to 102 °C.

`CCOC(=O)CCc1cc2ccccc2c(-c2ccccc2)n1`: the melting point is 109 °C.

In turn, `CNC(=O)Oc1cc(C)c(NC(=O)COC)cc1C` displayed a melting point of 168 to 170 °C.

Consider `COC(=O)CC(=O)c1ccc(-c2ccccc2)cc1`, for which the melting point worked out at 82 °C.

`N#Cc1ccc(C(=O)c2ccc(O)c(CC(=O)O)c2)cc1` registered a melting point of 218 °C.

With `CC(C)(C)OC(=O)N[C@@H]1Cc2ccccc2C[C@H]1O` (relative stereo), the melting point lay within 149 to 150 °C.

`CCOc1cc2c(cc1OCC)C(c1ccccc1)=NCC(=O)N2` returned a melting point of 233 to 236 °C.

Compound `Cc1nc2ccccc2c(=O)o1` returned a melting point of 79 to 81 °C.

In turn, `CCCNC(=S)N1CCc2cc(S(=O)(=O)N3CC(c4ccccc4)NC3=O)ccc21` (stereo not given) came in with a melting point of 222 to 224 °C.

Turning to `COC1OCC[C@@H]1NC(=O)[C@H](Cc1ccccc1)NC(=O)OCc1ccccc1` (stereo not given in full), the melting point was in the range of 140 to 142 °C.

Consider `CC(C)(C)Nc1c(NCc2ccccc2F)c(=O)c1=O`, for which the melting point was 260 to 262 °C.

Regarding `COCC1OC(=O)NC1c1ccccc1OC(C)(O)C1CCCCC1` (stereo not given), the melting point was 87 °C.

The compound `CC(C)(C)OC(=O)NCc1cccc(OCCC2Oc3ccccc3N(Cc3cccc(Cl)c3)C2=O)c1` (stereo not given) came in with a melting point of 98 to 100 °C.

For `O=C1NC(=O)C(c2ccc3ccccc3c2)O1` (stereo not given), the melting point was in the range of 187 to 188 °C.

For `CCN1CN(c2cccc(F)c2)c2ncccc2C1=O`, the melting point fell in the range of 123 to 124 °C.

`Cc1ccnc(F)c1N` yielded a melting point of 63 to 64 °C.

Turning to `COc1cc2[nH]c(N(C)Cc3cccc(Oc4ncccn4)c3)nc(=O)c2c(C)c1OC`, the melting point lay within 224 to 228 °C.

In turn, `CN1C(O)=C(C(=O)Nc2ccc(Br)cc2)c2ccsc2S1(=O)=O` gave a melting point of 197 to 199 °C.

Compound `CCCc1cccc2sc(Sc3ccc4c(c3)CC[C@H]3N(C)C(=O)CC[C@]43C)nc12` gave a melting point of 109 to 111 °C.

Compound `O=[N+]([O-])c1cccc2[nH]ncc12` registered a melting point of 172 to 174 °C.

Compound `CC[C@H](C)N1CC(C)(C)[C@@H](Oc2ccc(C#N)c(C(F)(F)F)c2)C1=O` displayed a melting point of 101 to 102 °C.

`N#Cc1ccc(Cn2c(=O)c(C#N)c(N3CCN(C(=O)c4cccs4)CC3)c3cccnc32)cc1` returned a melting point of 241 °C.

In the case of `CC(=O)Nc1cc([N+](=O)[O-])ccc1CBr`, the melting point lay within 188 to 189 °C.

The compound `CCCN1C(=O)N2C[C@@H](Cc3ccccc3)N=C2c2c1nc(N1CCCC1)n2Cc1ccccc1` gave a melting point of 124 to 125 °C.

`Cc1cccc(-c2n[nH]cc2-c2ccc(F)c(-c3ccc4c(c3)CCS4(=O)=O)c2)n1` yielded a melting point of 107 to 109 °C.

The compound `Cc1noc(NS(=O)(=O)c2ccccc2-c2ccc(-c3ncco3)cc2C(O)c2ncc(-c3ccccc3)o2)c1C` (stereo not given) yielded a melting point of 125 to 135 °C.

The compound `NCCNC(=O)COc1ccc(C2=NNC(=O)CC2)cc1` yielded a melting point of 176 to 178 °C.

Regarding `Cc1cc(C)n(-c2nc(-c3ccc(Cl)cc3)c(CCC(=O)N3CCN(CC4CCN(C)CC4)CC3)o2)n1`, the melting point was in the range of 126 to 127 °C.

`NC(=O)C12CCCC(C1)C1CCC2C1` (stereo not given) displayed a melting point of 173 to 174 °C.

Consider `Cc1cccc2cccc(O)c12`, for which the melting point was in the range of 56 to 59 °C.

For `CNC(=O)c1c(NC(=O)c2cc(C(F)(F)F)nn2-c2ncccc2Cl)c(Br)cc2cn[nH]c12`, the melting point was above 255 °C.

Take `Cc1ccc(S(=O)(=O)Nc2cccc(CCC(=O)c3cnc4sc(C)c(C)n34)c2)cc1`: the melting point is 180 to 181 °C.

In turn, `COc1ccc2c(=O)cc(-c3n[nH]c4ccccc34)oc2c1` displayed a melting point of 218 to 220 °C.

With `O=c1oc(-c2ccccc2)cc(O)c1N(Cc1ccccc1)Cc1ccccc1`, the melting point is 130 to 135 °C.

Compound `CCOC(=O)c1c(C=O)c2ccc3oc4ccccc4c3c2n1C` gave a melting point of 190 to 192 °C.

`NC(=S)c1ccc(I)cc1`: the melting point was in the range of 163 to 165 °C.

`CCOC(=O)c1sc(C)c(C(=O)OCC)c1OC` registered a melting point of 109 to 111 °C.

Regarding `CC(C#Cc1ccc(Oc2cccnc2)o1)N(O)C(N)=O` (stereo not given), the melting point is 128 °C.

For the compound `COC(=O)C(=O)c1ccccc1Oc1cc(Oc2ccccc2C#N)ncn1`, the melting point lay in the range of 96 to 97 °C.

`O=C(O)CCCc1cccc(C(=O)c2ccc(Cl)cc2)c1` returned a melting point of 94 °C.

For `CCCc1ccc(S(=O)(=O)NCC2CCN(S(=O)(=O)c3ccc(CCC)cc3)CC2)cc1`, the melting point was 158 to 159 °C.

`C#CC[C@H](c1nc2cc(Cl)ccc2c(=O)n1Nc1ccccc1)N(CCCN)C(=O)c1cccc(F)c1F`: the melting point was 168 to 170 °C.

Take `CCCN(C(C)C)[C@H]1COc2cccc(C(N)=O)c2C1`: the melting point was 121 to 122 °C.

For `c1cc2[nH]ncc2cc1OC1CCCC1`, the melting point is 141 to 142 °C.

In turn, `COC(=O)c1ccc2c(c1)Sc1ccccc1CC2Br` (stereo not given) registered a melting point of 116 to 123 °C.

In turn, `COc1cc(COc2nn(C)cc2CO)ccc1OCc1nc(-c2ccccc2)oc1C` yielded a melting point of 108 to 109 °C.

Consider `COc1cn(-c2cccc3cccnc23)nc(-c2ccnn2-c2ccccc2)c1=O`, for which the melting point fell in the range of 189 to 192 °C.

`CCCOc1ccc(S(=O)(=O)N2CCN(CCOC(=O)C(C)C)CC2)cc1-c1nc2c(CCC)cn(CC)c2c(=O)[nH]1` showed a melting point of 88 to 89 °C.

For `Nc1cnc2cc3c(cc2c1-c1ccccc1Cl)CCC3`, the melting point was 179 to 180 °C.

With `CC(=O)Nc1cc(C(=O)CCCCCl)cc2c1OCC2`, the melting point was in the range of 150 to 152 °C.

In the case of `CC1(C)CCSc2cccc(CO)c21`, the melting point worked out at 53 °C.

For `O=C(O)CCCN1C(=O)c2cccc([N+](=O)[O-])c2C1=O`, the melting point lay within 144 to 146 °C.

On to `Cc1nc2cc(F)ccc2c(=O)o1`, for which the melting point was 159 to 160 °C.

As to `Cc1oc(-c2ccccc2)nc1COc1ccc(CCCC#N)cc1`, the melting point is 73 to 74 °C.

In the case of `NC(=O)N(O)CCCCNC(=O)c1cccc(Oc2ccccc2)c1`, the melting point lay within 131 to 133 °C.

`COc1ccc2c(c1)c(Cc1nc(-c3ccc([N+](=O)[O-])cc3)cs1)c(C)n2C(=O)c1ccc(Cl)cc1` registered a melting point of 219 °C.

With `Nc1cccnc1C1CCN(c2cc3c(cc2F)c(=O)c(C(=O)O)cn3C2CC2)C1` (stereo not given), the melting point was above 270 °C.

Compound `COc1ccc(C(=O)Nc2c[nH]nc2C(=O)NCCC#N)cc1` returned a melting point of 199 to 200 °C.

In turn, `FCCn1cc(-c2ccc3nnn(Cc4ccc5ncccc5c4)c3n2)cn1` yielded a melting point of 168 to 170 °C.

Take `CC(CN1CCN(C(c2ccc(F)cc2)c2ccc(F)cc2)CC1)Cn1c(=O)[nH]c2ccccc21` (stereo not given): the melting point stood at 176 °C.

With `COc1cc2c(cc1Nc1ncc(Cl)c(Nc3ccccc3S(=O)(=O)N3CCCC3)n1)NC(=O)CN(CC1CC1)C2`, the melting point came to 142 °C.

`COC[C@@H]1C(=O)Nc2ccc(C(F)(F)F)cc2C[C@@H]1c1ccc(OC)cc1` (relative stereo) showed a melting point of 220 to 228 °C.

Turning to `O=CNC1CCc2c([nH]c3ccccc23)C1` (stereo not given), the melting point fell in the range of 123 to 126 °C.

(Values after a melting point compilation (Tetko et al.; mined from patent text by program, amines drawn as free bases though some values may be those of a salt).)
